Data: ChEMBL document CHEMBL3351430, “Inhibition studies of new ureido-substituted sulfonamides incorporating a GABA moiety against human carbonic anhydrase isoforms I-XIV” (Bioorg Med Chem, 2014)
pKi: −log10 of the molar value.

Columns and labels:
Carbonic anhydrase 13 = Carbonic anhydrase 13 (Homo sapiens, UniProt Q8N1Q1)
Description: Inhibition of human recombinant carbonic anhydrase 13 pre-incubated for 15 mins by stopped-flow CO2 hydration assay

Carbonic anhydrase 3 = Carbonic anhydrase 3 (Homo sapiens, UniProt P07451)
Description: Inhibition of human recombinant carbonic anhydrase 3 pre-incubated for 15 mins by stopped-flow CO2 hydration assay

Carbonic anhydrase 6 = Carbonic anhydrase 6 (Homo sapiens, UniProt P23280); assay: Inhibition of human recombinant carbonic anhydrase 6 pre-incubated for 15 mins by stopped-flow CO2 hydration assay
Carbonic anhydrase 6, sequence (P23280 whole entry): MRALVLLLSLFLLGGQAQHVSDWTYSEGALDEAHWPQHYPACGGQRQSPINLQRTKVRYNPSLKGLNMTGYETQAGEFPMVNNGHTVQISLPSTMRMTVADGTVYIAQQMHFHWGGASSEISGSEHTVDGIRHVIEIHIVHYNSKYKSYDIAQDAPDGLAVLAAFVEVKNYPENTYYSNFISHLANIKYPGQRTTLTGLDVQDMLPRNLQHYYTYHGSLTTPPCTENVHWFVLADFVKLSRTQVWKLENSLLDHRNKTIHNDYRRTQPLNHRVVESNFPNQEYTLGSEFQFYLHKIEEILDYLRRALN

Carbonic anhydrase 9 = Carbonic anhydrase 9 (Homo sapiens, UniProt Q16790)
Description: Inhibition of human recombinant carbonic anhydrase 9 pre-incubated for 15 mins by stopped-flow CO2 hydration assay

Carbonic anhydrase 13, sequence (Q8N1Q1 whole entry): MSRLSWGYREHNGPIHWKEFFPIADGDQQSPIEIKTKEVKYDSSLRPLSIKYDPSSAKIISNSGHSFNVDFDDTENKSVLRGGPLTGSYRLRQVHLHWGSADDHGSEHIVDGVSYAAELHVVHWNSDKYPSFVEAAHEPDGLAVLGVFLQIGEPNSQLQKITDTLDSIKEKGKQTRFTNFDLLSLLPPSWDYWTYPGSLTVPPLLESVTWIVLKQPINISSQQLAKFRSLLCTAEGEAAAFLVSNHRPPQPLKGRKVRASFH
Carbonic anhydrase 3, sequence (P07451 whole entry): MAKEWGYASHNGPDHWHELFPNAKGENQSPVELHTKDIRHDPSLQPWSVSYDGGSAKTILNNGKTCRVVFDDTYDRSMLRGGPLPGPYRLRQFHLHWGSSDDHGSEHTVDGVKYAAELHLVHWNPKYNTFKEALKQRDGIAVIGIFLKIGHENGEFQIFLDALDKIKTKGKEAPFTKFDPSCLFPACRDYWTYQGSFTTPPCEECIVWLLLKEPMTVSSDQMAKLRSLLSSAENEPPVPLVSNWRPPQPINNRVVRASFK

Q: `NS(=O)(=O)c1ccc(CNC(=O)CCCNC(=O)Nc2ccccc2)cc1` was tested. Which pKi (Carbonic anhydrase 13) did it give?
A: < 6.62

Q: And the pKi (Carbonic anhydrase 3)?
A: < 4.68

Q: And the pKi (Carbonic anhydrase 6)?
A: < 6.92

Q: And the pKi (Carbonic anhydrase 9)?
A: 7.34

Q: With `NS(=O)(=O)c1ccc(CCNC(=O)CCCNC(=O)Nc2ccccc2)cc1` as the compound, how does the pKi (Carbonic anhydrase 13) read?
A: < 6.62

Q: What about the pKi (Carbonic anhydrase 3) of the same compound?
A: < 4.68

Q: And the pKi (Carbonic anhydrase 6)?
A: < 6.92

Q: And the pKi (Carbonic anhydrase 9)?
A: 7.38

Q: How did the pKi (Carbonic anhydrase 13) turn out when `NS(=O)(=O)c1ccc(CNC(=O)CCCNC(=O)NCc2ccccc2)cc1` was run?
A: < 6.62

Q: And the pKi (Carbonic anhydrase 3)?
A: < 4.68

Q: What about the pKi (Carbonic anhydrase 6) of the same compound?
A: < 6.92

Q: `NS(=O)(=O)c1ccc(CCNC(=O)CCCNC(=O)NCc2ccccc2)cc1` was tested. Which pKi (Carbonic anhydrase 13) did it give?
A: < 6.62

Q: And the pKi (Carbonic anhydrase 3)?
A: < 4.68

Q: What about the pKi (Carbonic anhydrase 6) of the same compound?
A: < 6.92

Q: And the pKi (Carbonic anhydrase 9)?
A: 6.97

Q: `NS(=O)(=O)c1ccc(CNC(=O)CCCNC(=O)NCCc2ccccc2)cc1` was tested. Which pKi (Carbonic anhydrase 13) did it give?
A: < 6.62

Q: And the pKi (Carbonic anhydrase 3)?
A: < 4.68

Q: What about the pKi (Carbonic anhydrase 6) of the same compound?
A: < 6.92

Q: What about the pKi (Carbonic anhydrase 9) of the same compound?
A: 6.52

Q: How did the pKi (Carbonic anhydrase 13) turn out when `NS(=O)(=O)c1ccc(CCNC(=O)CCCNC(=O)Nc2ccc([N+](=O)[O-])cc2)cc1` was run?
A: < 6.62

Q: What about the pKi (Carbonic anhydrase 3) of the same compound?
A: < 4.68

Q: What about the pKi (Carbonic anhydrase 6) of the same compound?
A: < 6.92

Q: What about the pKi (Carbonic anhydrase 9) of the same compound?
A: 6.86
